Among the data in ChEMBL document CHEMBL2424652, “Synthesis, characterization, and antimicrobial evaluation of novel trichalcones containing core s-triazine moiety” (2013) are zone of inhibition and inhibition zone (IZ) values, retold here.

What all share (type): functional
Experiment [1] in a line: Antibacterial activity against Xanthomonas citri at 200 ug/mL after 24 hrs by disc diffusion method. Conditions: read-out: DIZ. Background: In agar diffusion tests the substance spreads into inoculated agar from a disc or well.
For experiment [2], the system named is Alternaria. Briefly: Antifungal activity against Alternaria at 200 ug/mL after 48 hrs by disc diffusion method. Conditions: for zone of inhibition at 200 µg/mL: read-out: DIZ.
The subject of experiment [3] is Staphylococcus aureus. Briefly: Antibacterial activity against Staphylococcus aureus at 200 ug/mL after 24 hrs by disc diffusion method. Conditions: read-out: DIZ.
Experiment [4] concerns Curvularia. Put plainly: Antifungal activity against Curvularia lunata at 200 ug/mL after 48 hrs by disc diffusion method. Conditions: for zone of inhibition at 200 µg/mL: read-out: DIZ.
Experiment [5] concerns Pectobacterium carotovorum. Put plainly: Antibacterial activity against Erwinia carotovora at 200 ug/mL after 24 hrs by disc diffusion method. The note with it: read-out: DIZ.
For experiment [6], the system named is Proteus vulgaris. Briefly: Antibacterial activity against Proteus vulgaris at 200 ug/mL after 24 hrs by disc diffusion method. The note with it: read-out: DIZ.

Consider `COc1cc(C(=O)/C=C/c2ccc(Oc3nc(Oc4ccc(/C=C/C(=O)c5cc(OC)c(OC)c(OC)c5)cc4)nc(Oc4ccc(/C=C/C(=O)c5cc(OC)c(OC)c(OC)c5)cc4)n3)cc2)cc(OC)c1OC`, for which the zone of inhibition at 200 µg/mL in experiment [1] turned out to be 10.1 mm; in experiment [2] it was 13.2 mm; in experiment [3] it was 13 mm; in experiment [4] it was 14.1 mm; in experiment [5], 12.3 mm; in experiment [6] it was 11.1 mm.
Regarding NYSTATIN, the inhibition zone (IZ) in experiment [2] and in experiment [4] was 15 mm in each case.
For the compound `O=C(/C=C/c1ccc(Oc2nc(Oc3ccc(/C=C/C(=O)c4ccc(Br)cc4)cc3)nc(Oc3ccc(/C=C/C(=O)c4ccc(Br)cc4)cc3)n2)cc1)c1ccc(Br)cc1`, the zone of inhibition at 200 µg/mL was 11.1 mm in experiment [1]; 6.16 mm in experiment [2]; 9.96 mm in experiment [3]; 10.1 mm in experiment [4]; 13 mm in experiment [5]; 11.9 mm in experiment [6].
With `O=C(/C=C/c1ccc(Oc2nc(Oc3ccc(/C=C/C(=O)c4ccc([N+](=O)[O-])cc4)cc3)nc(Oc3ccc(/C=C/C(=O)c4ccc([N+](=O)[O-])cc4)cc3)n2)cc1)c1ccc([N+](=O)[O-])cc1`, the zone of inhibition at 200 µg/mL in experiment [1] worked out at 6.1 mm; in experiment [2] it was 7 mm; in experiment [3] it was 4.93 mm; in experiment [4], 8.2 mm; in experiment [5] it was 6.96 mm; in experiment [6], 5.9 mm.
`O=C(/C=C/c1ccc(Oc2nc(Oc3ccc(/C=C/C(=O)c4ccccc4)cc3)nc(Oc3ccc(/C=C/C(=O)c4ccccc4)cc3)n2)cc1)c1ccccc1`: the zone of inhibition at 200 µg/mL was found to be 6.96 mm in experiment [1]; 5.1 mm in experiment [2]; 10 mm in experiment [3]; 6.16 mm in experiment [4]; 7.93 mm in experiment [5]; 7.83 mm in experiment [6].
For the compound `COc1ccc(C(=O)/C=C/c2ccc(Oc3nc(Oc4ccc(/C=C/C(=O)c5ccc(OC)cc5)cc4)nc(Oc4ccc(/C=C/C(=O)c5ccc(OC)cc5)cc4)n3)cc2)cc1`, the zone of inhibition at 200 µg/mL in experiment [1] amounted to 8.86 mm; in experiment [2], 10.2 mm; in experiment [3] it was 7.86 mm; in experiment [4], 13.2 mm; in experiment [5] it was 8.06 mm; in experiment [6], 6.96 mm.
`Cc1ccc(C(=O)/C=C/c2ccc(Oc3nc(Oc4ccc(/C=C/C(=O)c5ccc(C)cc5)cc4)nc(Oc4ccc(/C=C/C(=O)c5ccc(C)cc5)cc4)n3)cc2)cc1`: the zone of inhibition at 200 µg/mL in experiment [1] turned out to be 10.1 mm; in experiment [2], 5.16 mm; in experiment [3], 7.93 mm; in experiment [4], 6.96 mm; in experiment [5], 8.03 mm; in experiment [6] it was 10 mm.
With `O=C(/C=C/c1ccc(Oc2nc(Oc3ccc(/C=C/C(=O)c4cccc([N+](=O)[O-])c4)cc3)nc(Oc3ccc(/C=C/C(=O)c4cccc([N+](=O)[O-])c4)cc3)n2)cc1)c1cccc([N+](=O)[O-])c1`, the zone of inhibition at 200 µg/mL was determined as 7.96 mm in experiment [1]; 7.96 mm in experiment [2]; 7.13 mm in experiment [3]; 6.96 mm in experiment [4]; 6 mm in experiment [5]; 10 mm in experiment [6].
Regarding `COc1ccc(C(=O)/C=C/c2ccc(Oc3nc(Oc4ccc(/C=C/C(=O)c5ccc(OC)c(OC)c5)cc4)nc(Oc4ccc(/C=C/C(=O)c5ccc(OC)c(OC)c5)cc4)n3)cc2)cc1OC`, the zone of inhibition at 200 µg/mL stood at 11.1 mm in experiment [1]; 12.1 mm in experiment [2]; 9.9 mm in experiment [3]; 12.1 mm in experiment [4]; 12.2 mm in experiment [5]; 12.3 mm in experiment [6].
For `O=C(/C=C/c1ccc(Oc2nc(Oc3ccc(/C=C/C(=O)c4ccc(Cl)cc4)cc3)nc(Oc3ccc(/C=C/C(=O)c4ccc(Cl)cc4)cc3)n2)cc1)c1ccc(Cl)cc1`, the zone of inhibition at 200 µg/mL in experiment [1] is 10.1 mm; in experiment [2], 8.03 mm; in experiment [3] it was 12.1 mm; in experiment [4] it was 7.2 mm; in experiment [5], 8.06 mm; in experiment [6] it was 14 mm.
`CC1(C)S[C@@H]2[C@H](NC(=O)Cc3ccccc3)C(=O)N2[C@H]1C(=O)O` [PENICILLIN G]: the zone of inhibition at 200 µg/mL in experiment [1], in experiment [3], in experiment [5] and in experiment [6] was 15 mm in each case.
Turning to `COc1ccc(OC)c(C(=O)/C=C/c2ccc(Oc3nc(Oc4ccc(/C=C/C(=O)c5cc(OC)ccc5OC)cc4)nc(Oc4ccc(/C=C/C(=O)c5cc(OC)ccc5OC)cc4)n3)cc2)c1`, the zone of inhibition at 200 µg/mL in experiment [1] stood at 10 mm; in experiment [2], 12.2 mm; in experiment [3], 9.1 mm; in experiment [4] it was 12.2 mm; in experiment [5], 9.1 mm; in experiment [6] it was 7.86 mm.
